Legend:
Salmonella typhimurium = experiment: Inhibitory effect of falcarindiol on S. typhimurium (optical density at 600nm, aerobic); format: cell-based; conditions: aerobic conditions, 20° C.
Clostridium botulinum = format: cell-based; conditions: anaerobic conditions, 20° C.
L. monocytogenes = experiment: Effect of oxygen on the inhibitory activity of falcarindiol; conditions: pH 7.5, 20° C.
[1] = Solubility of falcarindiol; format: physicochemical
[2] = Effectiveness of falcarindiol as inhibitor versus pH and aerobic conditions; format: cell-based
Escherichia coli = experiment: Inhibitory effect of falcarindiol on E. coli (optical density at 600nm, aerobic); format: cell-based; conditions: aerobic conditions, 20° C.
Staphylococcus aureus = experiment: Inhibitory effect of falcarindiol on S. aureus (optical density at 600nm, aerobic); format: cell-based; conditions: aerobic conditions, 20° C.
[3] = mice; cited from earlier work
[4] = Inactivation of falcarindiol by heating; format: physicochemical
[5] = tested on: mechanosensitive channels; conditions: giant spheroplasts of E. coli, patch clamp

SMILES: C=CC(O)C#CC#CC(O)C=CCCCCCCC (stereo not shown) [falcarindiol]
- inhibition of S. typhimurium (Salmonella typhimurium): inactive
- inhibition of C. botulinum (Clostridium botulinum): inhibited
- inactivation of L. monocytogenes under aerobic conditions (L. monocytogenes; aerobic): completely inactivated
- lag phase of L. monocytogenes under anaerobic conditions (L. monocytogenes; anaerobic): 15 h
- inhibition under aerobic versus anaerobic conditions (L. monocytogenes): much greater under aerobic conditions
- solubility in ethyl acetate [1]: readily soluble
- activity under aerobic conditions ([2]; aerobic conditions): active under aerobic conditions
- pH (acidity) values at which it is effective ([2]; pH): above 5
- inhibition of E. coli (Escherichia coli): inactive
- inhibition of S. aureus (Staphylococcus aureus): inhibited
- LD50 [3]: about 100 mg/kg of body weight
- stability to heating (activity) [4]: can be inactivated by heating
- activation of mechanosensitive channels [5]: mechanosensitive channels were activated

Source: US5455278A (priority 1994, dated 1995)
